Results reported in PMC5654968 (NPJ Systems Biology and Applications, 2017).
Read-outs that look alike come from different tables or passages of the source.

Assays:
[1] = Common metabolites in rat plasma by GC-MS/MS after polyI:C and/or maoto; assay type: in vivo
Experimental: Distilled water and saline were administered as vehicle to rats in each control group. […] Plasma cytokine levels were measured by ELISA or multiplex immunoassay; common metabolites and lipid mediators were analyzed by GC-MS/MS and LC-MS/MS, respectively.
1 The concentrations of TNF-α and IL-6 in plasma samples were evaluated by
2 ELISA (R&D Systems, Minneapolis, MN, USA). Multiplex immunoassays
3 (Milliplex, Merck KGaA, Darmstadt, Germany) were performed to quantify the
4 concentrations of IL-1β, IL-10 and INF-γ. Assays were performed according to
5 the manufacturer’s protocol.
If any outliers in the data set were determined to
10 be due to artifacts, they were excluded from the analysis. Data are presented as
11 mean ± SEM. Statistical significance of the data was determined by Welch’s
12 t-test with Bonferroni correction. The significance level in each statistical
13 analysis was set at P<0.05.
14 Analysis of metabolites by GC-MS/MS
15 Plasma samples obtained at 1, 2, 6 and 20 h after treatment were used for
16 analysis. To extract low molecular weight metabolites for GC-MS/MS analysis, […]

[2] = Plasma PK of major maoto compounds by LC-MS/MS after oral administration of maoto; assay type: in vivo, rat; details: for Tmax: read-out: Tmax
Experimental: 1 (7:00-19:00). Rats were maintained and used for the experiments in accordance
2 with the Guidelines for the Care and Use of Laboratory Animals of Tsumura &
3 CO. All experimental procedures were carried out upon approval from the
4 Laboratory Animal Committee of Tsumura & CO.
8 administered to 16-h fasted rats (n=3). […]
14 and 4 g/10mL/kg) were determined by LC-MS/MS. Based on a literature search,
16 amygdalin, prunasin, scopoletin, l-ephedrine, d-pseudoephedrine,
1 Plasma PK data were analyzed by noncompartmental modeling using
2 Phoenix WinNonlin (version 6.3, Certara L.P., St. Louis, MO, USA) to determine
3 various PK constants including Cmax, tmax, t1/2, and AUC0–last. The t1/2 was divided
4 by loge2/ke, where ke is the rate constant of terminal elimination (at least three
5 data points on the descending linear limb). […]

[3] = PM/P (polyI:C+maoto vs polyI:C), 1h
[4] = PM/P (polyI:C+maoto vs polyI:C), 2h
[5] = PM/P (polyI:C+maoto vs polyI:C), 6h
[6] = PM/P (polyI:C+maoto vs polyI:C), 20h
[7] = Sprague-Dawley, rat, plasma, po, 1 g/kg
[8] = Sprague-Dawley, rat, plasma, po, 1 g/kg, read-out: Cmax
[9] = Sprague-Dawley, rat, plasma, po, 2 g/kg
[10] = Sprague-Dawley, rat, plasma, po, 2 g/kg, read-out: Cmax
[11] = Sprague-Dawley, rat, plasma, po, 4 g/kg
[12] = Sprague-Dawley, rat, plasma, po, 4 g/kg, read-out: Cmax

Compound: O=C(CO)C(O)C(O)CO (stereo not drawn) [Ribulose]
- log2FC of plasma level ([1]; M/C (maoto vs control), 1h): 0.30
- log2FC of plasma level ([1]; M/C (maoto vs control), 2h): 0.01
- log2FC of plasma level ([1]; M/C (maoto vs control), 6h): 0.06
- log2FC of plasma level ([1]; M/C (maoto vs control), 20h): 0.08
- log2FC of plasma level ([1]; P/C (polyI:C vs control), 1h): 0.24
- log2FC of plasma level ([1]; P/C (polyI:C vs control), 2h): 0.14
- log2FC of plasma level ([1]; P/C (polyI:C vs control), 6h): 0.10
- log2FC of plasma level ([1]; P/C (polyI:C vs control), 20h): -0.04
- log2FC of plasma level [1, 3]: -0.26
- log2FC of plasma level [1, 4]: -0.26
- log2FC of plasma level [1, 5]: 0.02
- log2FC of plasma level [1, 6]: 0.0374

Compound: O=C[C@H](O)[C@H](O)[C@H](O)CO [Ribose]
- log2FC of plasma level ([1]; M/C (maoto vs control), 1h): 0.41
- log2FC of plasma level ([1]; M/C (maoto vs control), 2h): 0.05
- log2FC of plasma level ([1]; M/C (maoto vs control), 6h): -0.22
- log2FC of plasma level ([1]; M/C (maoto vs control), 20h): 0.16
- log2FC of plasma level ([1]; P/C (polyI:C vs control), 1h): 1.05
- log2FC of plasma level ([1]; P/C (polyI:C vs control), 2h): 0.63
- log2FC of plasma level ([1]; P/C (polyI:C vs control), 6h): -0.22
- log2FC of plasma level ([1]; P/C (polyI:C vs control), 20h): -0.34
- log2FC of plasma level [1, 3]: -1.38
- log2FC of plasma level [1, 4]: -0.72
- log2FC of plasma level [1, 5]: -0.21
- log2FC of plasma level [1, 6]: 0.2160

Compound: NCC(=O)O [Glycine]
- log2FC of plasma level ([1]; M/C (maoto vs control), 1h): -0.06
- log2FC of plasma level ([1]; M/C (maoto vs control), 2h): -0.10
- log2FC of plasma level ([1]; M/C (maoto vs control), 6h): -0.14
- log2FC of plasma level ([1]; M/C (maoto vs control), 20h): -0.06
- log2FC of plasma level ([1]; P/C (polyI:C vs control), 1h): -0.03
- log2FC of plasma level ([1]; P/C (polyI:C vs control), 2h): -0.01
- log2FC of plasma level ([1]; P/C (polyI:C vs control), 6h): -0.02
- log2FC of plasma level ([1]; P/C (polyI:C vs control), 20h): -0.30
- log2FC of plasma level [1, 3]: -0.12
- log2FC of plasma level [1, 4]: -0.42
- log2FC of plasma level [1, 5]: -0.02
- log2FC of plasma level [1, 6]: 0.0873

Compound: O=C1C[C@@H](c2ccc(O[C@@H]3O[C@H](CO)[C@@H](O)[C@H](O)[C@H]3O)cc2)Oc2cc(O)ccc21 [Liquiritin]
- AUC(0-t) [2, 7]: 8.9 ng·h/mL
- half-life [2, 7]: 1.95 h
- Cmax [2, 8]: 3.04 ng/mL
- Tmax [2, 7]: 0.25 h
- AUC(0-t) [2, 9]: 22.4 ng·h/mL
- half-life [2, 9]: 2.23 h
- Cmax [2, 10]: 7.23 ng/mL
- Tmax [2, 9]: 1 h
- AUC(0-t) [2, 11]: 61.4 ng·h/mL
- half-life [2, 11]: 4.34 h
- Cmax [2, 12]: 71.7 ng/mL
- Tmax [2, 11]: 0.25 h

Compound: Oc1cc(O)c2c(c1)O[C@H](c1ccc(O)c(O)c1)[C@H](O)C2 [Epicatechin]
- AUC(0-t) [2, 7]: 4.24 ng·h/mL
- half-life [2, 7]: 5.05 h
- Cmax [2, 8]: 1.82 ng/mL
- Tmax [2, 7]: 0.5 h
- AUC(0-t) [2, 9]: 2.78 ng·h/mL
- half-life [2, 9]: 2.03 h
- Cmax [2, 10]: 1.95 ng/mL
- Tmax [2, 9]: 0.25 h
- AUC(0-t) [2, 11]: 6.92 ng·h/mL
- half-life [2, 11]: 3.49 h
- Cmax [2, 12]: 8.34 ng/mL
- Tmax [2, 11]: 0.25 h

Compound: COc1c(CC=C(C)C)c(O)cc2oc(=O)c(-c3ccc(O)cc3O)cc12 [Glycycoumarin]
- AUC(0-t) [2, 7]: 0.0105 ng·h/mL
- Cmax [2, 8]: 0.0836 ng/mL
- Tmax [2, 7]: 0.25 h
- AUC(0-t) [2, 9]: 0.0227 ng·h/mL
- Cmax [2, 10]: 0.0906 ng/mL
- Tmax [2, 9]: 1 h
- AUC(0-t) [2, 11]: 0.058 ng·h/mL
- Cmax [2, 12]: 0.0753 ng/mL
- Tmax [2, 11]: 0.25 h

Compound: O=C(O)Cc1cc(O)ccc1O [Homogentisic acid]
- log2FC of plasma level ([1]; M/C (maoto vs control), 1h): 0.60
- log2FC of plasma level ([1]; M/C (maoto vs control), 2h): -0.05
- log2FC of plasma level ([1]; M/C (maoto vs control), 6h): 0.23
- log2FC of plasma level ([1]; M/C (maoto vs control), 20h): 0.79
- log2FC of plasma level ([1]; P/C (polyI:C vs control), 1h): -0.05
- log2FC of plasma level ([1]; P/C (polyI:C vs control), 2h): 0.24
- log2FC of plasma level ([1]; P/C (polyI:C vs control), 6h): 0.10
- log2FC of plasma level ([1]; P/C (polyI:C vs control), 20h): 0.75
- log2FC of plasma level [1, 3]: 0.68
- log2FC of plasma level [1, 4]: -0.76
- log2FC of plasma level [1, 5]: -0.18
- log2FC of plasma level [1, 6]: 0.0612

Compound: Oc1cc(O)c2c(c1)O[C@H](c1ccc(O)c(O)c1)[C@H](O)[C@H]2c1c(O)cc(O)c2c1O[C@H](c1ccc(O)c(O)c1)[C@H](O)[C@H]2c1c(O)cc(O)c2c1O[C@H](c1ccc(O)c(O)c1)[C@H](O)C2 [Procyanidin C1]
- AUC(0-t) [2, 11]: 1.69 ng·h/mL
- Cmax [2, 12]: 3.9 ng/mL
- Tmax [2, 11]: 0.25 h
- detection in rat plasma by targeted LC-MS/MS ([2]; oral maoto 2 g/kg): not detected
- AUClast ([2]; rat plasma, oral maoto 1 g/kg): BQL
- Cmax ([2]; rat plasma, oral maoto 1 g/kg): BQL
- AUClast ([2]; rat plasma, oral maoto 2 g/kg): BQL
- Cmax ([2]; rat plasma, oral maoto 2 g/kg): BQL

Compound: NC(N)=O [Urea]
- log2FC of plasma level ([1]; M/C (maoto vs control), 1h): 0.05
- log2FC of plasma level ([1]; M/C (maoto vs control), 2h): -0.01
- log2FC of plasma level ([1]; M/C (maoto vs control), 6h): -0.09
- log2FC of plasma level ([1]; M/C (maoto vs control), 20h): -0.07
- log2FC of plasma level ([1]; P/C (polyI:C vs control), 1h): -0.01
- log2FC of plasma level ([1]; P/C (polyI:C vs control), 2h): 0.02
- log2FC of plasma level ([1]; P/C (polyI:C vs control), 6h): -0.05
- log2FC of plasma level ([1]; P/C (polyI:C vs control), 20h): 0.03
- log2FC of plasma level [1, 3]: -0.02
- log2FC of plasma level [1, 4]: -0.03
- log2FC of plasma level [1, 5]: -0.13
- log2FC of plasma level [1, 6]: 0.0096

Compound: CN[C@@H](C)[C@H](O)c1ccccc1 [l-Ephedrine, l-ephedrine]
- AUC(0-t) [2, 7]: 730 ng·h/mL
- half-life [2, 7]: 1.35 h
- Cmax [2, 8]: 311 ng/mL
- Tmax [2, 7]: 0.25 h
- AUC(0-t) [2, 9]: 1560 ng·h/mL
- half-life [2, 9]: 1.44 h
- Cmax [2, 10]: 377 ng/mL
- Tmax [2, 9]: 1 h
- AUC(0-t) [2, 11]: 2850 ng·h/mL
- half-life [2, 11]: 4.19 h
- Cmax [2, 12]: 545 ng/mL
- Tmax [2, 11]: 0.25 h

Compound: COc1cc2ccc(=O)oc2cc1O [Scopoletin]
- AUC(0-t) [2, 7]: 0.07 ng·h/mL
- Cmax [2, 8]: 0.216 ng/mL
- Tmax [2, 7]: 0.25 h
- AUC(0-t) [2, 9]: 0.428 ng·h/mL
- half-life [2, 9]: 2.39 h
- Cmax [2, 10]: 0.425 ng/mL
- Tmax [2, 9]: 0.25 h
- AUC(0-t) [2, 11]: 0.591 ng·h/mL
- half-life [2, 11]: 5.44 h
- Cmax [2, 12]: 0.237 ng/mL
- Tmax [2, 11]: 0.25 h

Compound: CC(C(O)c1ccccc1)N(C)C (racemic) [dl-Methylephedrine]
- AUC(0-t) [2, 7]: 18.7 ng·h/mL
- half-life [2, 7]: 5.96 h
- Cmax [2, 8]: 16.6 ng/mL
- Tmax [2, 7]: 0.25 h
- AUC(0-t) [2, 9]: 46 ng·h/mL
- half-life [2, 9]: 1.99 h
- Cmax [2, 10]: 22.5 ng/mL
- Tmax [2, 9]: 0.25 h
- AUC(0-t) [2, 11]: 94.9 ng·h/mL
- half-life [2, 11]: 11.5 h
- Cmax [2, 12]: 37 ng/mL
- Tmax [2, 11]: 0.25 h

Compound: N#C[C@H](O[C@@H]1O[C@H](CO[C@@H]2O[C@H](CO)[C@@H](O)[C@H](O)[C@H]2O)[C@@H](O)[C@H](O)[C@H]1O)c1ccccc1 [Amygdalin]
- AUC(0-t) [2, 7]: 346 ng·h/mL
- half-life [2, 7]: 1.31 h
- Cmax [2, 8]: 101 ng/mL
- Tmax [2, 7]: 0.25 h
- AUC(0-t) [2, 9]: 1520 ng·h/mL
- half-life [2, 9]: 0.937 h
- Cmax [2, 10]: 653 ng/mL
- Tmax [2, 9]: 1 h
- AUC(0-t) [2, 11]: 7610 ng·h/mL
- half-life [2, 11]: 2.47 h
- Cmax [2, 12]: 5250 ng/mL
- Tmax [2, 11]: 0.25 h

Compound: O=C(O)/C=C/c1ccccc1 [Cinnamic acid]
- AUC(0-t) [2, 7]: 624 ng·h/mL
- Cmax [2, 8]: 1060 ng/mL
- AUC(0-t) [2, 9]: 2060 ng·h/mL
- half-life [2, 9]: 1.3 h
- Cmax [2, 10]: 1280 ng/mL
- AUC(0-t) [2, 11]: 5750 ng·h/mL
- half-life [2, 11]: 1.64 h
- Cmax [2, 12]: 2120 ng/mL
